# According to patent EP0078757A1, “Imines of 2-(4-phenyl-piperazinylethyl) anilines, process for their preparation and their use in medicine” (CORTIAL S.A., priority 1981, dated 1983):
# Read-outs that look alike come from different tables or passages of the source.
# Columns and labels:
# [1] = test system: anaphylaxie passive cutanée; assay: Passive cutaneous anaphylaxis test in rats; assay type: in vivo, rats mâles Sprague Dawley; conditions: for ED50: read-out: DE 50 voie po
# Procedure: L'activité antiallergique a été déterminée dans le test de l'anaphylaxie passive cutanée de la façon suivante. On administre à des rats mâles Sprague Dawley par voie intradermique 0,1 ml de sérum riche en IgE. Ce sérum a été fabriqué en sensibilisant des rats Sprague-Dawley par une injection ip d'ovalbumine et de suspension de Bordetella pertusis suivie 20 j après par une nouvelle injection d'ovalbumine. 24 heures après administration du sérum on injecte par voie iv 0,5 ml d'une solution contenant 8,25 mg/kg d'ovalbumine et 26,4 mg/kg de bleu d'Evans dans un tampon pH 7,05. Au bout de 30 mn les animaux sont sacrifiés; chaque papule est découpée, pesée et mise à incuber pendant 4 j à 37°C dans 15 g de formamide. La quantité de bleu d'Evans contenue dans chaque papule est déterminée par la mesure de la densité optique du mélange. Le produit à tester est administré par voie orale ou intrapéritonéale en suspension homogène en présence de tween 80, 10 mn avant l'injection déclenchante. Son activité est appréciée par le pourcentage de diminution de la quantité de bleu d'Evans ayant diffusé dans la papule. Les DE 50 de certains produits de la présente invention sont indiquées dans le tableau V.
# motilité chez la souris = assay: Motility (actimeter) in mice, sedative effect; assay type: in vivo; conditions: ip route, mouse, Litchfield Wilcoxon method
# Description: L'effet des substances sur la motilité est appréciée chez la souris en utilisant un actimètre. Les animaux sont placés dans la cage d'activométrie et à partir du nombre de déplacements enregistrés par l'appareil,on obtient pour chaque dose considérée le pourcentage de l'effet observé par rapport au lot témoin. Ces pourcentages sont reportés sur un papier à l'échelle log-probit et la méthode de Litchfield Wilcoxon permet de calculer la dose efficace 50 sédative. Le tableau VI donne les DE 50 sédatives pour un certain nombre de produits faisant l'objet de l'invention.
# souris Swiss = assay: Oral (intragastric) toxicity, mortality in mice; assay type: in vivo; conditions: mouse, solvent as in the source
# Description: La mortalité induite par ces substances a été déterminée chez la souris Swiss exempte d'organismes pathogènes spécifiques. Les animaux sont stabulés en salle climatisée 24 à 48 heures avant le début de l'expérimentation. Les substances sont administrées soit par voie intragastrique en solution dans de l'huile d'olive ou du tween, soit par voie intrapéritonéale en solution dans du tween. Les résultats sont exprimés dans les tableaux I et II par le pourcentage de mortalité en fonction de la dose administrée ou par la dose induisant 50 % de mortalité (DL 50) déterminée par la méthode de Bliss.
# [2] = oral route, rat, given 10 min before challenge, decrease of Evans blue in the papule, limits in brackets
molecule,measurement,setting,value
"CC(CN1c2ccccc2Sc2ccccc21)N(C)C (stereo not shown) [Prométhazine, reference compound]",ED50,[1]; [2],2.9 mg/kg
(phényl-4pipérazinyléthyl)-2 N-pyridylidène-3 aniline [COR 3412],DE 50 voie ip,"[1]; intraperitoneal route, rat, given 10 min before challenge, decrease of Evans blue in the papule, limits in brackets","7,52 (3,31 - 17,38) mg/kg"
same,DE 50 voie po,[1]; [2],"11,9 (7,9 - 18,2) mg/kg"
same,DE 50 sédation,motilité chez la souris,4 mg/kg
"CN(C)CCCN1c2ccccc2Sc2ccc(Cl)cc21 [Chlorpromazine, reference compound]",ED50,"[1]; Rattus norvegicus, po",4.9 mg/kg
"(((trifluorométhyl-3 phényl)-4 pipérazinyl)-2 éthyl)-6 N-pyridylidène-3 benzodioxol-1,3 yl-5 amine [COR 3415]",% de mortalité en fonction de la dose exprimée en mg/kg,souris Swiss; dose 500 mg/kg,0%
same,% de mortalité en fonction de la dose exprimée en mg/kg,souris Swiss; dose 750 mg/kg,50%
same,% de mortalité en fonction de la dose exprimée en mg/kg,souris Swiss; dose 1000 mg/kg,60%
same,% de mortalité en fonction de la dose exprimée en mg/kg,souris Swiss; dose 2000 mg/kg,70%
same,DE 50 voie po,[1]; [2],20 mg/kg
